Assays:
[1] = biological target: D-amino acid oxidase (DAAO) (UniProt P14920)
Experimental: The activity of DAAO was determined in vitro by measuring the inhibition of the catabolism of known substrate, D-proline. The cofactor FAD (40 ? M) was added to the DAAO stock solution first. For the assay, potential inhibitors of tannic acid(s) were mixed with reaction mixture containing phosphate buffered saline (137 mM NaCl, 3 mM KCl, 10 mM Na2HPO4, 2 mM NaH2PO4, pH 7.4), horseradish peroxidase (5 U/ml), o-phenylendiamine (OPD, 0.03%), and 0.6 μg human-(or porcine-) DAAO, and incubated for about 5 min. After the pre-incubation period, 40 mM D-proline were added as substrate and the reaction continued for 10 min. OPD was oxidized to form 2,3-diaminophenazine (DAP) by horseradish peroxidase. The absorbance of DAP was measured at 453 nm by a spectrophotometry. Assay was done in serial dilutions of the inhibitors to generate IC50 and analyzed by Prism (Graphpad Software). In the analysis, the spectrophotometry readings were fit to a standard equation to determine the concentration of 50% inhibition (IC50). All enzymatic assays were conducted at room temperature in 96-well plate format.
The DAAO inhibitory activities of subgroups of tannic acids (having a particular number of galloyl moieties) were determined as follows.

MK-801 treated mice [2] = assay: Open field locomotion in MK-801 treated mice (Examples 3, 4); format: in vivo, C57BL/6J male mice; conditions: MK-801 0.1 mg/kg i.p. alone
Experimental: (§1) Each mouse in Groups 2-6 received an acute administration of MK-801 (Sigma-Aldrich, USA) dissolved in normal saline, 0.1 mg/kg, i.p.) 20 minutes prior to the behavioral tests. Each mouse in Groups 3-6 received an acute administration of tannic acids (Sigma-Aldrich, USA; dissolved in PBS, 10, 15, 20 or 30 mg/kg, i.p.) 20 minutes prior to the MK-801 administration.
All mice in this study were tested with open field task and prepulse inhibition task with at least 1-week interval between two tasks. An additional cohort of mice was used to test the effect of different sources of tannic acid on prepulse inhibition.
(§2) Each mouse in Groups 2-5 received an acute administration of MK-801 (Sigma-Aldrich, USA) dissolved in normal saline, 0.1 mg/kg for open field and Barnes maze tasks, and 0.2 mg/kg for prepulse inhibition and sucrose preference tasks by i.p. injection) 20 minutes prior to the behavioral tests. Each mouse in Groups 3-6 received an acute oral administration of tannic acids (Merck Millipore, Germany; dissolved in PBS, 10, 30, or 100 mg/kg, p.o.) 20 minutes prior to the MK-801 administration.
In this test, tannic acids were administered orally 20 minutes before the MK-801 (0.1 mg/kg) injection.

MK-801 treated mice [3] = assay: Prepulse inhibition in MK-801 treated mice (Examples 3, 4); format: in vivo, C57BL/6J male mice; conditions: MK-801 0.2 mg/kg i.p. alone
Experimental: as §1
Prepulse inhibition was used as an index of sensorimotor gating function using SR-LAB startle apparatus (San Diego Instruments, San Diego, Calif., USA). Under 72 dB background noise, each session was composed of 5 minutes accumulation period followed by 64 trials in four blocks. The pulse alone (PA) trial was a 40 ms, 120 dB white noise burst. In the prepulse (pp)+pulse trials, a 20 ms white noise prepulse stimuli of 78 dB (pp6), 82 dB (pp10), and 90 dB (pp18) were presented 100 ms before a 40 ms 120 dB pulse. The non-stimulus (NS) trials presented the background noise only. The initial and the last blocks were composed of six PA trials, respectively. Two middle blocks consisted of PA, pp+pulse, and NS trials. […] The percentage of prepulse inhibition was evaluated by the following formula: % PPI=100×[(PA score)−(pp−P score)]/(PA score), where the PA score was the average of the PA value in the middle blocks. […]

MK-801 treated mice [4] = assay: Sucrose preference (anhedonia) in MK-801 treated mice; format: in vivo, C57BL/6J male mice; conditions: MK-801 0.2 mg/kg i.p. alone
Experimental: as §2
Sucrose preference test has been commonly examined in mouse models of several mental illnesses, including, but not limited to, depression, major depression disorder, anhedonia, negative symptoms of schizophrenia, chronic mild and unpredictable stress (see Anderson et al., 2006; Carvalho et al., 2013; Briones et al., 2011; Der-Avakian and Markou, 2012; Tye et al., 2013; Edwards and Koob, 2012; Brigman et al., 2010; Koo and Duman, 2007; Nestler and Hyman, 2010; Overstreet, 2012; Papp et al., 1991; Santiago et al., 2010; Skalisz et al., 2002; Szczypka et al., 2001; Taylor et al., 2010; Vardigan et al., 2010; Willner et al., 1987; You et al., 2011).

MK-801 treated mice [5] = assay: Open field locomotion in MK-801 treated mice (Example 9); format: in vivo, C57BL/6J male mice; conditions: MK-801 0.2 mg/kg i.p. alone
Experimental: Each mouse in Groups 2-5 received an acute administration of 0.2 mg/kg MK-801 (Sigma-Aldrich, USA) dissolved in normal saline by i.p. injection 20 minutes prior to the locomotion activity test. Each mouse in Groups 3-6 received an acute oral administration of 50 mg/kg tannic acids dissolved in ddH2O by p.o. 20 minutes prior to the MK-801 administration. Tannic acid purchased from Merch Millipore (Merck TA) and from Wufeng Chicheng Biotech (CCBiotech TA), and tannic acid from Enrichment method 10 (Enrichment #10) at 50 mg/kg were used in this study.
The open field task is a common measurement of novelty induced exploratory behavior and general activity in both mice and rats. In this study, the mice were placed in a PLEXIGLAS® cage (37.5 cm×21.5 cm×18 cm) under 50-65 lux light intensity. Their spontaneous locomotor activities were measured for 30 minutes using the SMART video tracking system (Panlab, Harvard Apparatus). The travel distance of each mouse was measured as an index of locomotion activity.

MK-801 treated mice [6] = assay: Prepulse inhibition in MK-801 treated mice (Example 9); format: in vivo, C57BL/6J male mice; conditions: MK-801 0.3 mg/kg i.p. alone
Experimental: Each mouse in Groups 2-4 received an acute administration of 0.3 mg/kg MK-801 (Sigma-Aldrich, USA) dissolved in normal saline by i.p. injection 20 minutes prior to the prepulse inhibitin test. Each mouse in Groups 3-4 received an acute oral administration of 50 or 200 mg/kg Enrichment #10 tannic acids dissolved in ddH2O by p.o. 20 minutes prior to the MK-801 administration.
Prepulse inhibition was used as an index of sensorimotor gating function using SR-LAB startle apparatus (San Diego Instruments, San Diego, Calif., USA). Under 65 dB background noise, each session was composed of 5 minutes accumulation period followed by 64 trials in four blocks. The pulse alone (PA) trial was a 40 ms, 120 dB white noise burst. In the prepulse (pp)+pulse trials, a 20 ms white noise prepulse stimuli of 71 dB (pp6), 75 dB (pp10), and 83 dB (pp18) were presented 100 ms before a 40 ms 120 dB pulse. The non-stimulus (NS) trials presented the background noise only. The initial and the last blocks were composed of six PA trials, respectively. Two middle blocks consisted of PA, pp+pulse, and NS trials. […] The percentage of prepulse inhibition was evaluated by the following formula: % PPI=100×[(PA score)−(pp−P score)]/(PA score), where the PA score was the average of the PA value in the middle blocks

Row | Compound | IC50 ([1]; read-out: IC50 (μM), potency of individual tannic acids, Table 4) [µM] | Relative DAAO activity (%) ([1]; samples at 300 nM) | locomotion activity vs control group (MK-801 treated mice [2]; Example 3) | locomotion (MK-801 treated mice [2]; Example 4) | prepulse inhibition vs control group (MK-801 treated mice [3]) | preference toward the sucrose solution (2%) (MK-801 treated mice [4]) | locomotion activity vs control group (MK-801 treated mice [5]) | prepulse inhibition vs control group (MK-801 treated mice [6])
1 | O=C(OC[C@H]1OC(OC(=O)c2cc(O)c(O)c(OC(=O)c3cc(O)c(O)c(O)c3)c2)[C@H](OC(=O)c2cc(O)c(O)c(OC(=O)c3cc(O)c(O)c(O)c3)c2)[C@@H](OC(=O)c2cc(O)c(O)c(OC(=O)c3cc(O)c(O)c(O)c3)c2)[C@@H]1OC(=O)c1cc(O)c(O)c(OC(=O)c2cc(O)c(O)c(O)c2)c1)c1cc(O)c(O)c(OC(=O)c2cc(O)c(O)c(O)c2)c1 (some centres unmarked) [10G] | 0.215 | 19.25 |  |  |  |  |  | 
2 | C[C@]12N[C@H](Cc3ccccc31)c1ccccc12 [MK-801] |  |  | hyper-locomotion activity | induced hyper-locomotion | induced robust prepulse inhibition deficits | did not show the preference toward the sucrose solution | hyper-locomotion activity | induced robust prepulse inhibition deficits in all prepulse intensities
